Where two headings read alike, the source gives them in different places.
Tests used:
[1] = tested on: grass carp PRL promoter (pPRL(−1156).Luc) in αT3-1 cells; format: cell-based, grass carp (promoter); rat (αT3-1 cells, as printed); conditions: 0.1–1000 nM, 24 hr, n = 4
Protocol: The cells were then cultured for 18 hr recovery before drug treatment. (A) Time course analysis on the effect of oPACAP38 (6–48 hrs) on grass carp PRL promoter activity in αT3-1 cells. (B) αT3-1 cells over-expressed pPRL(−1156).LUC were treated for 24 hrs with increasing doses of oPACAP38. Effects of PACAP and VIP antagonists on PACAP-induced PRL mRNA expression were also investigated. In these experiments, αT3-1 cells over-expressed pPRL(−1156).LUC were challenged with oPACAP38 (10 nM, 24 hr) in the presence or absence of (C) the PACAP antagonist PACAP6-38 (10 nM) or (D) VIP antagonist (4-Cl-D-Phe6, Leu17)VIP (“VIP-R antagonist”, 100 nM).
After 18 h recovery, the cells were incubated with respective drugs. (A) αT3-1 cells over-expressed pPRL(−1156).LUC were treated for 24 hrs with increasing doses of cpt-cAMP (1–100 μM). (B) αT3-1 cells over-expressed pPRL(−1156).LUC were treated for 24 hrs with increasing doses of Forskolin (10–1000 nM). Effects of cAMP/PKA inhibitors on PACAP-induced PRL mRNA expression were then investigated. αT3-1 cells over-expressed pPRL(−1156).LUC were challenged with oPACAP38 (10 nM, 24 hr) in the presence or absence of (C) AC inhibitor MDL12330A (10 μM) or (D) PKA blocker H89 (10 μM).
After 18 h recovery, the cells were incubated with respective drugs. The cells were treated for 24 hr with increasing doses of (A) Ca^2+ ionophore A23187 or (B) L-type VSCC activator Bay K8644. Inhibiting extracellular Ca^2+ entry on PRL mRNA expression in carp pituitary cells was examined. In this study, αT3-1 cells over-expressed pPRL(−1156).LUC were treated with (C) oPACAP38 (10 nM, 24 hrs) or (D) Forskolin (100 nM, 24 hrs) in the Ca^2+-free medium (with different doses of EGTA).
After 18 h recovery, the cells were incubated with respective drugs.

[2] = tested on: αT3-1 cells, total IP; test: Total inositol phosphate measurement in αT3-1 cells; format: cell-based, rat (αT3-1 cells, as printed); conditions: myo-[3H] inositol labelled αT3-1 cells, 10 mM LiCl; treatment 45 min; GnRH 1 μM
Protocol: Figure 7 Functional role of the PLC/IP3/PKC and CaM/CaMK-II cascades in PACAP- and Forskolin-induced PRL promoter activity. αT3-1 cells were transiently transfected with pPRL(−1156).LUC for 6 h by using lipofectamine. After 18 h recovery, the cells were incubated with respective drugs. […] (B) Transfected αT3-1 cells were labeled with 2 μCi/well of myo-[3 H] inositol (DuPont/NEN) in myo-inositol free DMEM medium containing 10% fetal bovine serum and then treated with oPACAP38, VIP, and GnRH for 45 mins. The total IP production were analyzed by detecting the radio-labelled inositol incorporation.
Transfected αT3-1 cells were labeled with 2 μCi/well of myo-[^3H] inositol (DuPont/NEN) in myo-inositol free DMEM medium containing 10% fetal bovine serum. After incubation for 12 hr at 37 °C, myo-[^3H] inositol labeling medium was removed, and αT3-1 cells were washed two times with prewarmed phosphate buffered saline (PBS; pH 7.4) to remove trace of the excessive myo-[^3H] inositol. The transfected cells were then incubated in DMEM containing 0.1% BSA and 10 mM LiCl (to inhibit inositol phosphate degradation) for 20 min at 37 °C before drug treatment. After that, the transfected cells were treated with ovine PACAP38, VIP, and GnRH for 45 min. […] Levels of radioactivity in these samples were measured using a liquid scintillation counter (Beckman).

[3] = tested on: PAC1 receptors; conditions: cited from earlier work
Excerpt: (§1) PACAP and vasoactive intestinal peptide (VIP) are members of the glucagon/secretin peptide family and have been reported to play roles in PRL regulation. […] In contrast to VIP, the biological actions of PACAP on ...

[4] = tested on: PRL gene expression in GH4C1 cells; conditions: cited from earlier work
Excerpt: as §1

[5] = tested on: PRL promoter in GH3 cells; conditions: cAMP-dependent; cited from earlier work
Excerpt: as §1

[6] = tested on: PRL secretion / PRL gene expression; conditions: mammals, cited from earlier work
Excerpt: as §1

[7] = tested on: MAPK in SH-SY5Y neuroblastoma cells; conditions: human SH-SY5Y neuroblastoma cells; cited from earlier work
Excerpt: (§2) Given that PACAP has been reported to activate MAPK (e.g., in human SH-SY5Y neuroblastoma cells)[24], and PI3K-dependent cascades (e.g., in human neutrophils)[25], the functional role of MAPK and PI3K in PACAP-induced grass carp promoter activity were also examined. […] However, parallel treatment with the PI3K inhibi ...

[8] = tested on: PI3K-dependent cascades in neutrophils; conditions: human neutrophils; cited from earlier work
Excerpt: as §2

[9] = tested on: pCREB in grass carp pituitary cells; test: Western blot of pCREB in primary grass carp pituitary cells; conditions: oPACAP38, 24 hrs
[10] = tested on: tCREB in grass carp pituitary cells; test: Western blot of tCREB in primary grass carp pituitary cells; conditions: oPACAP38, 24 hrs

For “pituitary adenylate cyclase-activating peptide [PACAP]”, the “concentration of maximal response, luciferase activity” value [1] was 1000 nM, the “dose dependence of luciferase activity expression” value [1] was “up-regulate luciferase activity expression in a dose-dependent manner” and the EC50 ([1]; read-out: EC50 value, luciferase activity (PRL promoter activity)) was 4.5 nM. The “total IP level” value [2] was “enhance total IP level”, the “affinity/specificity at PAC1 receptors” value [3] was “specific for PACAP” and the “effect on PRL gene expression” value [4] was “stimulatory effects”. For the same substance, the “effect on PRL promoter activity” value [5] was “up-regulate PRL promoter activity”, the “effect on PRL secretion” value ([6]; ref 9, 13) was “stimulatory” and the “effect on PRL secretion” value ([6]; ref 14) was “inhibitory”. The “effect on PRL secretion” value ([6]; ref 15, 16) was “no effect”, the MAPK activation [7] was “activate MAPK” and the “activation of PI3K-dependent cascades” value [8] was “activate”. The CREB phosphorylation [9] was “significantly enhanced CREB phosphorylation” and the “total CREB production” value [10] was “stimulated total CREB production”.
